{"source": "patent US20240376084A1", "about": "“INHIBITORS OF ALPHA-HEMOLYSIN OF STAPHYLOCOCCUS AUREUS” (Helmholtz-Zentrum Fur Infektionsforschung GmbH, priority 2021, published 2024)", "key": {"[1]": {"biological_target": "hemolysin alpha from Staphylococcus aureus (Staphylococcus aureus, UniProt P09616)", "sequence (P09616 27-319 limits assumed)": "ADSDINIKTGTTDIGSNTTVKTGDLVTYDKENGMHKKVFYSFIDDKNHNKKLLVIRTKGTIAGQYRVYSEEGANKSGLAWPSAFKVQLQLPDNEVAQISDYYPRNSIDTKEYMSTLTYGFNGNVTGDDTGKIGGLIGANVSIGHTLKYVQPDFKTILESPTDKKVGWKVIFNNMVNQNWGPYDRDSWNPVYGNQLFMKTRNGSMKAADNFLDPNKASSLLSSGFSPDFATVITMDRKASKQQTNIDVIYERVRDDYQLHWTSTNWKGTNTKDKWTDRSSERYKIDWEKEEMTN", "test": "cell-based"}, "[2]": {"biological_target": "S. aureus Alpha hemolysin (Staphylococcus aureus, UniProt P09616)", "sequence (P09616 27-319 limits assumed)": "as above", "test": "cell-based"}}}
{"smiles": "Cc1cc2[nH]c(=O)c(=O)[nH]c2cc1S(=O)(=O)NC12CC(c3ccccc3)(C1)C2", "note": "[Compound 230, 7-methyl-2,3-dioxo-N-(3-phenylbicyclo[1.1.1]pentan-1-yl)-1,2,3,4-tetrahydroquinoxaline-6-sulfonamide]", "values": [{"measurement": "EC50", "setting": "[1]", "result": "100 to 1000", "unit": "nM"}, {"measurement": "EC50", "setting": "[2]; A549-LDH Assay activity", "result": "100 to 1000", "unit": "nM"}]}
{"smiles": "Cc1cc(NS(=O)(=O)c2cc3[nH]c(=O)c(=O)[nH]c3cc2F)ccc1-c1ccccc1", "note": "[Compound 33, 7-fluoro-N-(2-methyl-[1,1′-biphenyl]-4-yl)-2,3-dioxo-1,2,3,4-tetrahydroquinoxaline-6-sulfonamide]", "values": [{"measurement": "IC50", "setting": "[1]", "result": "< 30", "unit": "nM"}, {"measurement": "EC50", "setting": "[2]; A549-LDH Assay activity", "result": "30 to 100", "unit": "nM"}]}
{"smiles": "O=c1[nH]c2cc(Cl)c(S(=O)(=O)Nc3ccc(C4CC4)cc3)cc2[nH]c1=O", "note": "[Compound 85, 7-chloro-N-(4-cyclopropylphenyl)-2,3-dioxo-1,2,3,4-tetrahydroquinoxaline-6-sulfonamide]", "values": [{"measurement": "IC50", "setting": "[1]", "result": "100 to 1000", "unit": "nM"}, {"measurement": "EC50", "setting": "[2]; A549-LDH Assay activity", "result": "30 to 100", "unit": "nM"}]}
{"smiles": "Cc1cc2[nH]c(=O)c(=O)[nH]c2cc1S(=O)(=O)Nc1ccc(-c2ccc3cc[nH]c3c2)c(Cl)c1", "note": "[Compound 271, N-[3-chloro-4-(1H-indol-6-yl)phenyl]-7-methyl-2,3-dioxo-1,4-dihydroquinoxaline-6-sulfonamide]", "values": [{"measurement": "EC50", "setting": "[1]", "result": "< 30", "unit": "nM"}, {"measurement": "EC50", "setting": "[2]; A549-LDH Assay activity", "result": "< 30", "unit": "nM"}]}
{"smiles": "O=c1[nH]c2cc(Cl)c(S(=O)(=O)Nc3ccc(-c4ccc5c(c4)NCC5)c(Cl)c3)cc2[nH]c1=O", "note": "[Compound 46, 7-chloro-N-(3-chloro-4-(indolin-6-yl)phenyl)-2,3-dioxo-1,2,3,4-tetrahydroquinoxaline-6-sulfonamide]", "values": [{"measurement": "IC50", "setting": "[1]", "result": "30 to 100", "unit": "nM"}, {"measurement": "EC50", "setting": "[2]; A549-LDH Assay activity", "result": "100 to 1000", "unit": "nM"}]}
{"smiles": "Cc1cc2[nH]c(=O)c(=O)[nH]c2cc1S(=O)(=O)Nc1ccc(-c2cn(C)c3ccccc23)c(Cl)c1", "note": "[Compound 340, N-[3-chloro-4-(1-methylindol-3-yl)phenyl]-7-methyl-2,3-dioxo-1,4-dihydroquinoxaline-6-sulfonamide]", "values": [{"measurement": "EC50", "setting": "[1]", "result": "100 to 1000", "unit": "nM"}, {"measurement": "EC50", "setting": "[2]; A549-LDH Assay activity", "result": "1000 to 6000", "unit": "nM"}]}
{"smiles": "Cc1cc2[nH]c(=O)c(=O)[nH]c2cc1S(=O)(=O)Nc1ccc(-c2ccc(F)cc2)c(C(F)(F)F)c1", "note": "[Compound 326, N-[4-(4-fluorophenyl)-3-(trifluoromethyl)phenyl]-7-methyl-2,3-dioxo-1,4-dihydroquinoxaline-6-sulfonamide]", "values": [{"measurement": "EC50", "setting": "[1]", "result": "< 30", "unit": "nM"}, {"measurement": "EC50", "setting": "[2]; A549-LDH Assay activity", "result": "30 to 100", "unit": "nM"}]}
{"smiles": "Cc1cc2[nH]c(=O)c(=O)[nH]c2cc1S(=O)(=O)Nc1ccc(C(C)C)cc1", "note": "[Compound 76, N-(4-isopropylphenyl)-7-methyl-2,3-dioxo-1,2,3,4-tetrahydroquinoxaline-6-sulfonamide]", "values": [{"measurement": "IC50", "setting": "[1]", "result": "100 to 1000", "unit": "nM"}, {"measurement": "EC50", "setting": "[2]; A549-LDH Assay activity", "result": "100 to 1000", "unit": "nM"}]}
{"smiles": "Cc1cc2[nH]c(=O)c(=O)[nH]c2cc1S(=O)(=O)Nc1ccc(C2CC2)cc1", "note": "[drawing 470 (R^2 = CH3)]", "values": [{"measurement": "EC50", "setting": "[1]", "result": 63, "unit": "nM"}, {"measurement": "EC50", "setting": "[2]; LDH Assay EC50", "result": 18, "unit": "nM"}]}
{"smiles": "Cc1cc2[nH]c(=O)c(=O)[nH]c2cc1S(=O)(=O)Nc1ccc(-c2cc(F)ccc2F)c(Cl)c1", "note": "[Compound 295, N-[3-chloro-4-(2,5-difluorophenyl)phenyl]-7-methyl-2,3-dioxo-1,4-dihydroquinoxaline-6-sulfonamide]", "values": [{"measurement": "EC50", "setting": "[1]", "result": "30 to 100", "unit": "nM"}, {"measurement": "EC50", "setting": "[2]; A549-LDH Assay activity", "result": "100 to 1000", "unit": "nM"}]}
{"smiles": "Cc1nc2ccc(-c3ccc(NS(=O)(=O)c4cc5[nH]c(=O)c(=O)[nH]c5cc4C)cc3Cl)cc2o1", "note": "[Compound 269, N-[3-chloro-4-(2-methyl-1,3-benzoxazol-6-yl)phenyl]-7-methyl-2,3-dioxo-1,4-dihydroquinoxaline-6-sulfonamide]", "values": [{"measurement": "EC50", "setting": "[1]", "result": "< 30", "unit": "nM"}, {"measurement": "EC50", "setting": "[2]; A549-LDH Assay activity", "result": "< 30", "unit": "nM"}]}
{"smiles": "Cc1cc2[nH]c(=O)c(=O)[nH]c2cc1S(=O)(=O)Nc1cc(C)c(-c2cccs2)c(C)c1", "note": "[Compound 58, N-(3,5-dimethyl-4-(thiophen-2-yl)phenyl)-7-methyl-2,3-dioxo-1,2,3,4-tetrahydroquinoxaline-6-sulfonamide]", "values": [{"measurement": "IC50", "setting": "[1]", "result": "30 to 100", "unit": "nM"}, {"measurement": "EC50", "setting": "[2]; A549-LDH Assay activity", "result": "1000 to 6000", "unit": "nM"}]}
{"smiles": "CC(C)c1ccc(NS(=O)(=O)c2cc3[nH]c(=O)c(=O)[nH]c3cc2Cl)cc1", "note": "[Compound 142, 7-chloro-N-(4-isopropylphenyl)-2,3-dioxo-1,2,3,4-tetrahydroquinoxaline-6-sulfonamide]", "values": [{"measurement": "IC50", "setting": "[1]", "result": "100 to 1000", "unit": "nM"}, {"measurement": "EC50", "setting": "[2]; A549-LDH Assay activity", "result": "100 to 1000", "unit": "nM"}]}
{"smiles": "Cc1cc2[nH]c(=O)c(=O)[nH]c2cc1S(=O)(=O)Nc1ccc(-c2cccs2)c(Cl)c1", "note": "[Compound 24, N-(3-chloro-4-(thiophen-2-yl)phenyl)-7-methyl-2,3-dioxo-1,2,3,4-tetrahydroquinoxaline-6-sulfonamide]", "values": [{"measurement": "IC50", "setting": "[1]", "result": "< 30", "unit": "nM"}, {"measurement": "EC50", "setting": "[2]; A549-LDH Assay activity", "result": "30 to 100", "unit": "nM"}]}
{"smiles": "Cc1cc2[nH]c(=O)c(=O)[nH]c2cc1S(=O)(=O)Nc1ccc(-c2ccccc2)c(Cl)c1", "note": "[Compound 1, N-(2-chloro-[1,1′-biphenyl]-4-yl)-7-methyl-2,3-dioxo-1,2,3,4-tetrahydroquinoxaline-6-sulfonamide]", "values": [{"measurement": "IC50", "setting": "[1]", "result": "< 30", "unit": "nM"}, {"measurement": "EC50", "setting": "[2]; A549-LDH Assay activity", "result": "30 to 100", "unit": "nM"}]}
{"smiles": "Cc1cc2[nH]c(=O)c(=O)[nH]c2cc1S(=O)(=O)Nc1ccc(-c2ccc(C#N)nc2)c(Cl)c1", "note": "[Compound 254, N-[3-chloro-4-(6-cyano-3-pyridyl)phenyl]-7-methyl-2,3-dioxo-1,4-dihydroquinoxaline-6-sulfonamide]", "values": [{"measurement": "EC50", "setting": "[1]", "result": "100 to 1000", "unit": "nM"}, {"measurement": "EC50", "setting": "[2]; A549-LDH Assay activity", "result": "100 to 1000", "unit": "nM"}]}
{"smiles": "Cc1cc2[nH]c(=O)c(=O)[nH]c2cc1S(=O)(=O)Nc1ccc2ccccc2c1", "note": "[Compound 60, 7-methyl-N-(naphthalen-2-yl)-2,3-dioxo-1,2,3,4-tetrahydroquinoxaline-6-sulfonamide]", "values": [{"measurement": "IC50", "setting": "[1]", "result": "30 to 100", "unit": "nM"}, {"measurement": "EC50", "setting": "[2]; A549-LDH Assay activity", "result": "30 to 100", "unit": "nM"}]}
{"smiles": "C#Cc1ccc(-c2ccc(NS(=O)(=O)c3cc4[nH]c(=O)c(=O)[nH]c4cc3C)cc2C#C)cc1", "note": "[Compound 251, N-(2,4′-diethynyl-[1,1′-biphenyl]-4-yl)-7-methyl-2,3-dioxo-1,2,3,4-tetrahydroquinoxaline-6-sulfonamide]", "values": [{"measurement": "EC50", "setting": "[1]", "result": "< 30", "unit": "nM"}, {"measurement": "EC50", "setting": "[2]; A549-LDH Assay activity", "result": "< 30", "unit": "nM"}]}
{"smiles": "Cc1cc2[nH]c(=O)c(=O)[nH]c2cc1S(=O)(=O)Nc1ccc(-c2cccc(O)c2)c(Cl)c1", "note": "[Compound 386, N-[3-chloro-4-(3-hydroxyphenyl)phenyl]-7-methyl-2,3-dioxo-1,4-dihydroquinoxaline-6-sulfonamide]", "values": [{"measurement": "EC50", "setting": "[1]", "result": "< 30", "unit": "nM"}, {"measurement": "EC50", "setting": "[2]; A549-LDH Assay activity", "result": "< 30", "unit": "nM"}]}
{"smiles": "O=c1[nH]c2cc(Cl)c(S(=O)(=O)Nc3ccc(-c4ccccc4F)c(Cl)c3)cc2[nH]c1=O", "note": "[Compound 25, 7-chloro-N-(2-chloro-2′-fluoro-[1,1′-biphenyl]-4-yl)-2,3-dioxo-1,2,3,4-tetrahydroquinoxaline-6-sulfonamide]", "values": [{"measurement": "IC50", "setting": "[1]", "result": "< 30", "unit": "nM"}, {"measurement": "EC50", "setting": "[2]; A549-LDH Assay activity", "result": "100 to 1000", "unit": "nM"}]}
{"smiles": "Cc1cc2[nH]c(=O)c(=O)[nH]c2cc1S(=O)(=O)Nc1ccc(Br)c(Cl)c1", "note": "[Compound 75, N-(4-bromo-3-chlorophenyl)-7-methyl-2,3-dioxo-1,2,3,4-tetrahydroquinoxaline-6-sulfonamide]", "values": [{"measurement": "IC50", "setting": "[1]", "result": "100 to 1000", "unit": "nM"}, {"measurement": "EC50", "setting": "[2]; A549-LDH Assay activity", "result": "100 to 1000", "unit": "nM"}]}
{"smiles": "O=c1[nH]c2cc(OC(F)(F)F)c(S(=O)(=O)Nc3ccc(-c4ccc(F)cc4)c(Cl)c3)cc2[nH]c1=O", "note": "[Compound 197, N-(2-chloro-4′-fluoro-[1,1′-biphenyl]-4-yl)-2,3-dioxo-7-(trifluoromethoxy)-1,2,3,4-tetrahydroquinoxaline-6-sulfonamide]", "values": [{"measurement": "EC50", "setting": "[1]", "result": "1000 to 3500", "unit": "nM"}, {"measurement": "EC50", "setting": "[2]; A549-LDH Assay activity", "result": "1000 to 6000", "unit": "nM"}]}
{"smiles": "Cc1cc2[nH]c(=O)c(=O)[nH]c2c(F)c1S(=O)(=O)Nc1ccc(-c2cccc(Cl)c2)c(Cl)c1", "note": "[Compound 43, N-(2,3′-dichloro-[1,1′-biphenyl]-4-yl)-5-fluoro-7-methyl-2,3-dioxo-1,2,3,4-tetrahydroquinoxaline-6-sulfonamide]", "values": [{"measurement": "IC50", "setting": "[1]", "result": "30 to 100", "unit": "nM"}, {"measurement": "EC50", "setting": "[2]; A549-LDH Assay activity", "result": "1000 to 6000", "unit": "nM"}]}
{"smiles": "CC(C)c1ccc(NS(=O)(=O)c2cc3[nH]c(=O)c(=O)[nH]c3cc2F)cc1", "note": "[Compound 101, 7-fluoro-N-(4-isopropylphenyl)-2,3-dioxo-1,2,3,4-tetrahydroquinoxaline-6-sulfonamide]", "values": [{"measurement": "IC50", "setting": "[1]", "result": "100 to 1000", "unit": "nM"}, {"measurement": "EC50", "setting": "[2]; A549-LDH Assay activity", "result": "100 to 1000", "unit": "nM"}]}
